Article PMC9181899, “Synthesis and Anticancer Properties of New 3-Methylidene-1-sulfonyl-2,3-dihydroquinolin-4(1H)-ones” (Molecules, 2022)
Where two headings read alike, the source gives them in different places.

Legend:
[1] = tested on: MCF-7 cells; assay: MTT in vitro cytotoxicity assay, MCF-7; assay type: cell-based; conditions: Homo sapiens, MCF7, 48 h incubation, mean ± SEM
Method: (§1) The promyelocytic leukemia HL-60 and breast cancer adenocarcinoma MCF-7 cell lines were purchased from the European Collection of Cell Cultures (ECACC). Leukemia cells were cultured in RPMI 1640 plus GlutaMax I medium (Gibco/Life Technologies, Carlsbad, CA, USA). MCF-7 cells were maintained in Minimum Essential Medium Eagle (Sigma Aldrich, St. Louis, MO, USA) and supplemented with 2 mM glutamine and men non-essential amino acid solution (Sigma Aldrich, St. Louis, MO, USA). Both media were supplemented with 10% heat-inactivated fetal bovine serum (Biological Industries, Beit-Haemek, Israel) and antibiotics (100 U/mL penicillin and 100 μg/mL streptomycin) (Sigma-Aldrich, St. Louis, MO, USA). Human umbilical vein endothelial cells (HUVECs) were purchased from the American Type Culture Collection (ATCC). Cells were cultured using EGM-2 Endothelial Medium BulletKit purchased from Lonza (Lonza, Walkersville, MD, USA). Cells were maintained at 37 °C in 5% CO2 atmosphere and grown until 80% confluent.
(§2) The tested compounds were dissolved in sterile dimethyl sulfoxide (DMSO) and further diluted with culture medium. The final concentration of DMSO in cell cultures was less than 0.1% v/v. Controls without and with 0.1% DMSO were performed in each experiment. At the used concentration, DMSO had no effect on the observed parameters.
(§3) The MTT (3-(4,5-dimethylthiazol-2-yl)-2,5-diphenyltetrazolium bromide) assay, which measures the activity of cellular dehydrogenases, was performed according to the Mosmann method. Exponentially growing cells were seeded into 24-well plates at a density of 8 × 10^4 cells/mL and left to grow for 24 h. After 24 h or 48 h of incubation with various concentrations of the tested compounds (dissolved in DMSO and diluted with complete culture medium), cells were incubated with 0.1 mL of MTT solution (5 mg/mL in phosphate buffered saline) for 1.5 h. The metabolically active cells reduced MTT to blue formazan crystals. The plates were centrifuged, and the supernatant was discarded. DMSO (1 mL) was added to each well to dissolve the crystals, whose absorbance was measured at 560 nm using FlexStation 3 Multi-Mode Microplate Reader (Molecular Devices, LLC, San Jose, CA, USA). The untreated cells were used as control. The IC50 values were calculated from the concentration–response curves. The data were expressed as mean ± SEM of three independent experiments.

[2] = tested on: HL-60 cells; assay: MTT in vitro cytotoxicity assay, HL-60; assay type: cell-based; conditions: Homo sapiens
Method: as §1, §2, §3

[3] = tested on: HL-60 cells; assay: DNA damage by H2AX (pS139) staining, flow cytometry; assay type: cell-based, human; conditions: 24 h; for increase of phosphorylated H2AX level: vs control
Method: To evaluate the anticancer potential of 5a, the ability of this compound to inhibit cell proliferation, induce apoptotic cell death, and generate DNA damage was examined by flow cytometry using the ‘Apoptosis, DNA Damage, and Cell Proliferation Kit’ (BD Bioscience). After 24 h treatment with 5a in increasing concentrations, HL-60 cells were exposed to bromodeoxyuridine (BrdU) for additional 8 h. Then, the cells were simultaneously stained with fluorochrome-labeled anti-BrdU, anti-cleaved PARP (Asp214) and anti-H2AX (pS139).
It is well documented that apoptosis induced by many anticancer drugs may be a consequence of DNA damage. Chemical genotoxins that target DNA can inhibit DNA replication, which leads to the collapse of replication forks and the formation of DNA double strand breaks (DSBs). The generation of DNA damage was evaluated using anti-H2AX (pS139) antibodies directed against the phosphorylated form of human H2AX protein at the pS139 residue that is considered to be a biomarker for DNA DSBs. The treatment of HL-60 cells with 5a increased the levels of phosphorylated H2AX by 4.7- and 7.8-fold (to 1.35 µM and 1.9 µM, respectively), indicating the dose-dependent genotoxic effect of the tested compound (Figure 4c).
Cell proliferation, DNA damage, and apoptotic cell death were determined using Apoptosis, DNA Damage, and Cell Proliferation Kit (BD Bioscience, San Jose, CA, USA), according to the manufacturer protocol. Briefly, HL-60 cells were seeded in 6-well plates (4.0 × 10^5 cells/mL) in 2 mL of growth medium and treated with 5a for 24 h. Afterwards, the bromodeoxyuridine (BrdU, 10 µM) was added and the cells were incubated for additional 8 h. Next, the cells were collected by centrifugation (300× g, 5 min), counted, fixed, and permeabilized according to the manufacturer’s instructions. The cells were incubated with DNase (300 µg/mL in PBS) for 1 h at 37 °C and then simultaneously stained with fluorochrome-labeled anti-BrdU, H2AX (pS139), and cleaved PARP (Asp214) antibodies, for 20 min at room temperature. After washing, DNA staining with DAPI (1 µg/mL of the staining buffer) was performed, and the cells were analyzed by flow cytometry using CytoFLEX (Beckman Coulter, Inc., Brea, CA, USA).

[4] = tested on: ABCB1 gene expression; assay: Real-time PCR of ABCB1 mRNA level in HL-60 cells; assay type: cell-based; conditions: higher concentration (1.8 µM; 0.9 and 1.8 µM tested), 24 h
From the text: Overexpression of ATP-binding cassette (ABC) transporters causing multidrug resistance (MDR) in cancer cells is one of the major problems associated with poor therapeutic outcome of anticancer drugs. ABC transporters reduce the cellular uptake of drugs into cancer cells, defending them from medical interventions. In leukemia cells ABCB1 (P-glycoprotein), overexpression has been observed. […] It seemed interesting to determine if 3-methylidenequinolin-4-one 5a would also down-regulate ABCB1 mRNA levels in leukemia HL-60 cells. Here, we tested the ABCB1 gene expression of 5a at two concentrations, 0.9 and 1.8 µM. Compound 5a decreased the ABCB1 mRNA level at a higher concentration (Figure 6).
The mRNA level of the ABCB1 gene was assessed using quantitative real-time PCR. Briefly, HL-60 cells were seeded in 6-well plates (4.0 × 10^5 cells/mL) in 2 mL of growth medium and treated with 5a for 24 h. Total RNA was extracted using the Total RNA Mini Kit (A&A Biotechnology, Gdynia, Poland) according to the manufacturer’s protocol. The concentration of RNA used for further experiments was 500 ng. cDNA was synthesized using Transcriba Kit (A&A Biotechnology, Gdynia, Poland). […] The expression level of ABCB1 gene was determined by the 2^−∆∆CT method.

C=C1C(=O)c2ccccc2N(S(=O)(=O)c2ccccc2)C1CC (centres unmarked) [Compound 5a, 2-Ethyl-3-methylidene-1-(phenylsulfonyl)-2,3-dihydroquinolin-4(1H)-one]
IC50 [1]: 2740 ± 70 nM
IC50 ([2]; HL-60, 24 h, 24 h incubation, read-out: IC50 HL-60 after 24 h incubation): 910 ± 30 nM
IC50 ([2]; HL-60, 48 h, 48 h incubation, mean ± SEM, read-out: IC50 HL-60): 340 ± 30 nM
increase of phosphorylated H2AX level ([3]; 1.35 µM): 4.7 fold
Q1: H2AX (pS139) positive, cleaved PARP negative cells (representative plot) ([3]; 1.8 µM, Figure 3b): 5.0%
Q2: H2AX (pS139) and cleaved PARP positive cells (representative plot) ([3]; 1.8 µM, Figure 3b): 13.2%
increase of phosphorylated H2AX level ([3]; 1.9 µM): 7.8 fold
ABCB1 mRNA level [4]: decreased
